SMILES strings stand for the structures.

Usually IC50 stands for the concentration needed to halve the response being measured. Lower therefore signals inhibition by little substance.

In test [1] the target is Sodium-dependent serotonin transporter (Homo sapiens, UniProt P31645). In words: Inhibition of serotonin reuptake at SERT.
Test [2] deals with 5-hydroxytryptamine receptor 2A (Homo sapiens, UniProt P28223). Put plainly: Displacement of [3H]ketanserin from 5HT2A receptor.
Test [3] has as its target Voltage-gated inwardly rectifying potassium channel KCNH2 (Homo sapiens, UniProt Q12809). In words: Displacement of [3H]dofetilide from human ERG channel. On the technique in general: In a radioligand displacement assay an active substance lowers the binding of a labelled ligand.

Voltage-gated inwardly rectifying potassium channel KCNH2, sequence (Q12809 whole entry): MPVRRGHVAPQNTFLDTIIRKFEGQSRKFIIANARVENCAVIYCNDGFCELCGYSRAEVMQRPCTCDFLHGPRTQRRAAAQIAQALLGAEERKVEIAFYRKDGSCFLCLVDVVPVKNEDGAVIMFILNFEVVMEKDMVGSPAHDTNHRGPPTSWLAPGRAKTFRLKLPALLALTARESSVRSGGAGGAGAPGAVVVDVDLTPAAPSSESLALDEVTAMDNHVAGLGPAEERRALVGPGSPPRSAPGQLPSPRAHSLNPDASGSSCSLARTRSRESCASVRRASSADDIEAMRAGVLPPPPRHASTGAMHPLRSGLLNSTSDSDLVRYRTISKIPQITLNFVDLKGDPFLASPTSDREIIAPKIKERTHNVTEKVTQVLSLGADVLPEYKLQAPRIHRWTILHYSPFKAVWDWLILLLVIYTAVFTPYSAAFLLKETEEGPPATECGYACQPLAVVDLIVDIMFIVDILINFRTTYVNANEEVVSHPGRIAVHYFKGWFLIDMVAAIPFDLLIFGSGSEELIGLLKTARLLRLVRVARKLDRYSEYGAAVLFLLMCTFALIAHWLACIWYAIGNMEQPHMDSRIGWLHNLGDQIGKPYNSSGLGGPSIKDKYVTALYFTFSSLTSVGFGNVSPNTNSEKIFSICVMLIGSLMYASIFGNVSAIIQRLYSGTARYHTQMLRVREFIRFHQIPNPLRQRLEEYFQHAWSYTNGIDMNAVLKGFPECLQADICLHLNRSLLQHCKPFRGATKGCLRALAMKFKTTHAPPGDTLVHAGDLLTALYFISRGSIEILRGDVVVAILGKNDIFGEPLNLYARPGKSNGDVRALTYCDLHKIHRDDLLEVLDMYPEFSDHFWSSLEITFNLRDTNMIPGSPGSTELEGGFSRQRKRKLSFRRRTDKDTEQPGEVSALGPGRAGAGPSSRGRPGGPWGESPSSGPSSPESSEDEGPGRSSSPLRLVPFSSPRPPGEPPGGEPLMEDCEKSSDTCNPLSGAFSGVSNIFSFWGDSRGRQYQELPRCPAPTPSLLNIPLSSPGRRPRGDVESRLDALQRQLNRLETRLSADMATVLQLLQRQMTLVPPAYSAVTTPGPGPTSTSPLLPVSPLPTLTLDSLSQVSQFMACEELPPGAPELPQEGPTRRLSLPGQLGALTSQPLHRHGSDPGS
Sodium-dependent serotonin transporter, sequence (P31645 whole entry): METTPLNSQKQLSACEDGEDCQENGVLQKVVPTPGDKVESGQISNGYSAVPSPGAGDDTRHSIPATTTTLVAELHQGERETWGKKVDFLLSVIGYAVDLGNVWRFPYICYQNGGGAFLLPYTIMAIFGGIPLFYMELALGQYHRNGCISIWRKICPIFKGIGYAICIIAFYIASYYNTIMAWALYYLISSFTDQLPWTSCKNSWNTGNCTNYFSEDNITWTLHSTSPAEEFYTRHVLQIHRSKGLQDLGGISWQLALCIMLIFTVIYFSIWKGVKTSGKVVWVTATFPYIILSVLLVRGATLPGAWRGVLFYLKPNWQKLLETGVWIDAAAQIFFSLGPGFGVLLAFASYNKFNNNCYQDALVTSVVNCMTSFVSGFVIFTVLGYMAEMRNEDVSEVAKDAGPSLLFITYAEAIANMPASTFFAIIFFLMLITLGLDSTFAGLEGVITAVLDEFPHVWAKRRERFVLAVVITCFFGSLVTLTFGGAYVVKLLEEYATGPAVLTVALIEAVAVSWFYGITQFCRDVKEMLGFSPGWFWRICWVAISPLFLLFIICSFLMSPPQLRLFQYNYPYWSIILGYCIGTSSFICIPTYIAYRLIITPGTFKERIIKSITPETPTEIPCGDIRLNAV
5-hydroxytryptamine receptor 2A, sequence (P28223 whole entry): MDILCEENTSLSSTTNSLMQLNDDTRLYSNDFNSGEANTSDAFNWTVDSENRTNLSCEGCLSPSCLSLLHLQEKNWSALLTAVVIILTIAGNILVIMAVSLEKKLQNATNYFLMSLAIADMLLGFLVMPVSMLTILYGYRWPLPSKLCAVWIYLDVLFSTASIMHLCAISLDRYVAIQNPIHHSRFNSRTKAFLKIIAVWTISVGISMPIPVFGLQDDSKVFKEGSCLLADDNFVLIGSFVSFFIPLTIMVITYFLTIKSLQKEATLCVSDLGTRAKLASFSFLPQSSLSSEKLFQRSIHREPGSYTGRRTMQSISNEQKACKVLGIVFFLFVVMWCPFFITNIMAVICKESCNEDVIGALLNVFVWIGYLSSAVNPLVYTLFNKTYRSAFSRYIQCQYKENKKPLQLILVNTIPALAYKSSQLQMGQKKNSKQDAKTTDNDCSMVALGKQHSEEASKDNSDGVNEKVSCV

For `CN(C)Cc1ccccc1Oc1ccc(Cl)cc1`, the figures for the IC50 in test [1] and in test [2] were 1.68 nM and 1980 nM, respectively.

Take `CNCc1cc(F)ccc1Oc1ccc(F)c(Cl)c1`: the IC50 came out at 37.5 nM in test [1] and 575 nM in test [2].

With `CN(C)Cc1ccccc1Oc1ccc(Cl)c(Cl)c1`, the IC50 in test [1] is 0.35 nM; in test [2], 144 nM.

As to `CNC(C)c1cc(F)ccc1Oc1ccc(Cl)cc1` (configuration not stated), the IC50 turned out to be 34.8 nM in test [1] and 206 nM in test [2].

With `CNCc1ccc(Cl)cc1Oc1ccc(Cl)c(F)c1`, the IC50 in test [1] came to 88 nM; in test [3] it was 1230 nM; in test [2], 58.1 nM.

As for `CN(C)Cc1ccccc1Oc1ccc(F)c(F)c1`, the 50% inhibitory concentration (IC50) in test [1] is 34.4 nM; in test [2], 1000 nM.

For `CNCc1ccc(Cl)cc1Oc1ccc(C)cc1`, the IC50 came out at 17 nM in test [1] and 1.18 nM in test [2].

For the compound `CNCc1cc(F)ccc1Oc1ccc(Cl)c(F)c1`, the figures for the IC50 in test [1] and in test [2] were 19.3 nM and 2010 nM, respectively.

For `CNCc1ccc(Cl)cc1Oc1cccc(Cl)c1`, the IC50 in test [1] was determined as 77.5 nM; in test [3], 2110 nM; in test [2], 48.6 nM.

As to `CCc1cc(Oc2cc(Cl)ccc2CNC)ccc1Cl`, the half-maximal inhibitory concentration (IC50) in test [1] is 20.7 nM; in test [3], 1150 nM; in test [2], 47.1 nM.

As to `CSc1ccc(Oc2ccccc2CN(C)C)cc1`, the IC50 in test [1] stood at 1 nM; in test [3], 3020 nM; in test [2], 458 nM.

For the compound `CNCc1cc(C#N)ccc1Oc1ccc(Cl)c(Cl)c1`, the IC50 amounted to 2.5 nM in test [1], 4560 nM in test [3] and 3180 nM in test [2].

With `CNCc1ccc(Br)cc1Oc1ccc(Cl)c(Cl)c1`, the IC50 in test [1] stood at 5.1 nM; in test [2], 66.8 nM.

In the case of `CN(C)Cc1cc(CC(N)=O)ccc1Oc1ccc(Cl)c(Cl)c1`, the IC50 in test [1] amounted to 2.43 nM; in test [2] it was 2240 nM.

Turning to `CNCc1ccc(Cl)cc1Oc1ccc(C)c(Cl)c1`, the IC50 in test [1] turned out to be 4.19 nM; in test [2], 9.11 nM.

Consider `CNCc1ccc(Cl)cc1Oc1ccc(Cl)c(C)c1`, for which the IC50 came to 4.27 nM in test [1] and 9.04 nM in test [2].

For the compound `CNC(C)c1cc(C(F)(F)F)ccc1Oc1ccc(Cl)c(Cl)c1` (configuration not stated), the IC50 in test [1] came to 61.2 nM; in test [3], 3030 nM; in test [2] it was 291 nM.

As to `CNC(C)c1cc(C)ccc1Oc1ccc(Cl)c(Cl)c1` (configuration not stated), the IC50 in test [1] is 39.6 nM; in test [2] it was 172 nM.

For `CNCc1ccc(Cl)cc1Oc1ccc(F)c(Cl)c1`, the IC50 in test [1] came out at 25.4 nM; in test [2], 60.9 nM.

Take `CNCc1ccc(Cl)cc1Oc1ccc(F)c(C(F)(F)F)c1`: the figures for the IC50 in test [1], in test [3] and in test [2] were 9.71 nM, 873 nM and 48.9 nM, respectively.

As for `Cc1ccc(Oc2ccccc2CN(C)C)cc1`, the results for the IC50 in test [1] and in test [2] were 3.46 nM and 74.2 nM, respectively.

Turning to `CNCc1cc(F)ccc1Oc1ccc(-c2ccccc2)cc1`, the values for the IC50 in test [1] and in test [2] were 28.9 nM and 378 nM, respectively.

With `CNCc1cc(F)c(OC)cc1Oc1ccc(Cl)c(Cl)c1`, the IC50 turned out to be 4.51 nM in test [1] and 74.6 nM in test [2].

With `CNCc1ccc(Cl)cc1Oc1ccc(F)c(C)c1`, the IC50 in test [1] is 31.2 nM; in test [2], 32.9 nM.

For `COc1ccc(CN(C)C)c(Oc2ccc(Cl)c(Cl)c2)c1`, the IC50 in test [1] is 3.61 nM; in test [2], 36.8 nM.

As to `CNCc1cc(S(=O)(=O)NC)ccc1Oc1ccc(Cl)c(Cl)c1`, the IC50 in test [1] stood at 9.35 nM; in test [3], 4800 nM; in test [2], 5570 nM.

As to `CNCc1cc(C)c(C)cc1Oc1ccc(Cl)c(Cl)c1`, the IC50 in test [1] amounted to 8.9 nM; in test [3], 1480 nM; in test [2], 79.4 nM.

Regarding `CNCc1cc(C(N)=O)ccc1Oc1ccc(Cl)c(Cl)c1`, the IC50 in test [1] amounted to 3.78 nM; in test [3], 5440 nM; in test [2] it was 1550 nM.

`Cc1ccc(Oc2ccc(Cl)c(Cl)c2)c(CN(C)C)c1`: the IC50 in test [1] worked out at 2.36 nM; in test [3], 3390 nM; in test [2], 376 nM.

Regarding `CNCc1cc(F)c(Cl)cc1Oc1ccc(Cl)c(Cl)c1`, the IC50 in test [1] stood at 4.37 nM; in test [2], 230 nM.

In the case of `CNC(C)c1ccc(Cl)cc1Oc1ccc(C)cc1` (configuration not stated), the IC50 was 187 nM in test [1], 3690 nM in test [3] and 3.54 nM in test [2].

`CNCc1cc(Cl)ccc1Oc1ccc(C)c(C)c1`: the IC50 in test [1] came out at 9.81 nM; in test [2], 51 nM.

As for `CNCc1cc(Cl)ccc1Oc1ccc(Cl)cc1`, the IC50 in test [1] came to 7.49 nM; in test [2], 90.2 nM.

Consider `CNCc1ccc(Cl)cc1Oc1ccc(Cl)cc1`, for which the IC50 in test [1] stood at 9.2 nM; in test [2] it was 6.59 nM.

Consider `CNCc1cc(C(F)(F)F)ccc1Oc1ccc(C)cc1`, for which the IC50 in test [1] amounted to 74.7 nM; in test [3] it was 10400 nM; in test [2], 34.7 nM.

In the case of `CNCc1cc(F)ccc1Oc1ccccc1`, the IC50 in test [1] amounted to 381 nM; in test [2], 670 nM.

Take `CNCc1ccc(Cl)cc1Oc1ccc(C)c(C)c1`: the IC50 in test [1] is 4.67 nM; in test [2], 3.42 nM.

On to `CC(c1ccccc1Oc1ccc(Cl)c(Cl)c1)N(C)C` (configuration not stated), for which the IC50 worked out at 3.27 nM in test [1] and 87.8 nM in test [2].

Take `CNCc1cc(OC)c(OC)cc1Oc1ccc(Cl)c(Cl)c1`: the values for the IC50 in test [1] and in test [2] were 14.1 nM and 249 nM, respectively.

As for `CNC(C)c1ccccc1Oc1ccc(Cl)c(Cl)c1` (configuration not stated), the concentration for half-maximal inhibition (IC50) was found to be 23 nM in test [1] and 379 nM in test [2].

On to `CNC(C)c1ccccc1Oc1ccc(Cl)cc1` (configuration not stated), for which the IC50 in test [1] came out at 56.8 nM; in test [2], 179 nM.

For the compound `CNCc1ccc(F)cc1Oc1ccc(Cl)c(Cl)c1`, the IC50 in test [1] turned out to be 36 nM; in test [2], 651 nM.

Turning to `CNCc1cc(F)ccc1Oc1ccc(C)c(C)c1`, the IC50 is 7.55 nM in test [1] and 52.4 nM in test [2].

Regarding `CNCc1cc(F)ccc1Oc1ccc(Cl)c(Cl)c1`, the values for the IC50 in test [1] and in test [2] were 3.28 nM and 206 nM, respectively.

In the case of `CN(C)Cc1ccc(C(F)(F)F)cc1Oc1ccc(Cl)c(Cl)c1`, the IC50 in test [1] turned out to be 17.1 nM; in test [2], 41.5 nM.

As to `CNCc1ccccc1Oc1ccc(C)c(C)c1`, the IC50 in test [1] is 12.8 nM; in test [2] it was 66.4 nM.

In the case of `CNCc1ccccc1Oc1ccc(Cl)cc1`, the IC50 in test [1] was 13.9 nM; in test [2], 1050 nM.

On to `CNCc1ccc(C(F)(F)F)cc1Oc1ccc(Cl)c(Cl)c1`, for which the IC50 in test [1] was determined as 29.6 nM; in test [2], 362 nM.

Consider `CNCc1ccc(Cl)cc1Oc1ccc(Cl)c(Cl)c1`, for which the IC50 in test [1] came to 6.22 nM; in test [2], 89.5 nM.

`CNCc1cc(F)ccc1Oc1ccc(Cl)cc1`: the IC50 amounted to 9.47 nM in test [1] and 495 nM in test [2].

As to `CNCc1cc(Br)ccc1Oc1ccc(Cl)c(Cl)c1`, the 50% inhibitory concentration (IC50) in test [1] was 4.8 nM; in test [2] it was 787 nM.

With `CNC(C)c1cc(F)ccc1Oc1ccc(Cl)c(Cl)c1` (configuration not stated), the IC50 in test [1] stood at 8.09 nM; in test [2], 301 nM.

As to `CN(C)Cc1cc(N)ccc1Oc1ccc(Cl)c(Cl)c1`, the IC50 in test [1] turned out to be 4.99 nM; in test [2] it was 724 nM.

With `CNCc1ccccc1Oc1ccc(Cl)c(Cl)c1`, the IC50 in test [1] was 4.02 nM; in test [2], 721 nM.

Turning to `CNCc1ccc(OC)cc1Oc1ccc(Cl)c(Cl)c1`, the IC50 stood at 8.72 nM in test [1] and 105 nM in test [2].

On to `CNCc1cc(Cl)ccc1Oc1ccc(Cl)c(Cl)c1`, for which the figures for the IC50 in test [1] and in test [2] were 5.73 nM and 429 nM, respectively.

On to `CNCc1ccc(C(F)(F)F)cc1Oc1ccc(Cl)cc1`, for which the values for the IC50 in test [1], in test [3] and in test [2] were 31.1 nM, 5110 nM and 324 nM, respectively.

`CCc1cc(Oc2ccc(F)cc2CNC)ccc1Cl`: the IC50 in test [1] was determined as 5.53 nM; in test [2], 274 nM.

`CNCc1cc(C(F)(F)F)ccc1Oc1ccc(Cl)c(Cl)c1`: the IC50 in test [1] was 21.8 nM; in test [2] it was 1800 nM.

As to `CNC(C)c1ccccc1Oc1ccc(C)cc1` (configuration not stated), the IC50 in test [1] worked out at 94.1 nM; in test [2], 55.1 nM.

Regarding `CNCc1ccc(C#N)cc1Oc1ccc(Cl)c(Cl)c1`, the values for the IC50 in test [3] and in test [2] were 1310 nM and 315 nM, respectively.

Regarding `CNC(C)c1ccc(Cl)cc1Oc1ccc(C)c(C)c1` (configuration not stated), the half-inhibitory concentration (IC50) is 115 nM in test [1] and 6.82 nM in test [2].

Take `CNC(C)c1ccc(OC)cc1Oc1ccc(Cl)c(Cl)c1` (configuration not stated): the values for the IC50 in test [1] and in test [2] were 41.2 nM and 88 nM, respectively.

Take `CNCc1cc(OC)ccc1Oc1ccc(Cl)c(Cl)c1`: the IC50 in test [1] is 3.77 nM; in test [2] it was 1450 nM.
